Laboratory results as given in US11311593B2, “Root extracts from plants of the Morus genus and uses of same” (PLANT ADVANCED TECHNOLOGIES PAT, priority 2017, dated 2022).

How the values were obtained:
[1] = test system: collagenase obtained from Clostridium Histolyticum; assay: Target Binding affinity test for collagenase; details: ligands in non-stimulated M. alba root extract; moracenin B = reference ligand
Protocol: A root extract of Morus alba was prepared in accordance with the protocol described in Example 2.1. The Target Binding® method used was that of Example 2.3 which is described in patent application FR 1 670 545. The experimental protocol was as follows:
The target, a 6.25 mg/mL solution of collagenase obtained from Clostridium histolyticum, was prepared by dissolving lyophilized enzyme powder in 50 mM saline phosphate buffer with a pH of 7.5. The sample to be analyzed corresponded to the supernatant of the root extract obtained in accordance with Example 2.1. It could be centrifuged once again before use, at 21000 g for 15 min, in order to remove any traces of solid particles. A reference sample was also prepared by diluting the sample to be analyzed 10-fold in a solution of water and a quarter of the volume of acetonitrile.
1. Preconditioning step—Wells with a filtering membrane were preconditioned with a volume of 500 μL of a saline phosphate buffer which was passed through the membrane by centrifuging at 14000 g for 60 seconds.
2. Binding step—A volume of 92.5 μL of the solution obtained from the pretreatment step was mixed with 7.5 μL of the sample to be analyzed for 10 min in a plastic Eppendorf tube.
3. Washing step—The mixture of the enzyme and the sample to be analyzed was deposited in a well that had been preconditioned in the preconditioning step, then centrifuged at 14000 g until most of the solvent had been eliminated. The enzyme-ligand complexes remained on the surface of the filter membrane, then were re-suspended in a volume of 100 μL of the same saline phosphate buffer solution and centrifuged at 14000 g until the solvent had been eliminated. This procedure was repeated three times and eliminated all of the compounds that were not bound to the enzyme. 4. Separation step—The enzyme-ligand complexes retained in the filter were re-suspended in a volume of 10 μL of ultra-pure water then mixed with a volume of 30 μL of acetonitrile in order to denature and precipitate the enzyme and, at the same time, to liberate the ligands. The mixture was centrifuged at 21000 g for 10 min in order to separate the precipitate from the supernatant. 5. Analysis step—Said supernatant was analyzed by liquid phase chromatography coupled to a mass spectrometer. The reference sample was also analyzed in the same manner, using the same analytical conditions.
(§1) The UPLC-MS analysis was carried out in accordance with the protocol described in Example 1.

[2] = test system: hyaluronidase; assay: Target Binding affinity test for hyaluronidase; details: ligands in non-stimulated M. alba root extract; moracenin B = reference ligand
Protocol: A root extract of Morus Alba was prepared in accordance with the protocol described in Example 2.1. The Target Binding® method used was that of Example 2.3 which is described in patent application FR 1 670 545. The experimental protocol was as follows: The target, a 5 mg/mL solution of hyaluronidase, was prepared by dissolving powdered lyophilized enzyme in 50 mM sodium phosphate, with a pH of 7.0. The extract corresponded to the supernatant obtained in accordance with Example 2.1. It could optionally be centrifuged once again before use, at 21000 g for 15 min, in order to eliminate the solid particles before use. A reference sample was also prepared by diluting the sample 10-fold in a solution of water and a quarter of the volume of acetonitrile.
1. Preconditioning step—Wells with a filtering membrane were preconditioned with a volume of 500 μL of a solution of 50 mM sodium phosphate, at a pH of 7.0 which was passed through the membrane by centrifuging at 14000 g for 60 seconds.
2. Binding step—The hyaluronidase preparation (5 mg/mL) was mixed with 7.5 μL of the root extract for 5 min in a plastic Eppendorf tube.
3. Washing step—the mixture of the enzyme and the root extract was deposited in a well that had been preconditioned in the preconditioning step, then centrifuged at 14000 g until most of the solvent had been eliminated. The enzyme-ligand complexes remained on the surface of the membrane of the filter then were re-suspended in a volume of 100 μL of the same solution of 50 mM sodium phosphate at a pH of 7.0, and centrifuged at 14000 g until the solvent had been eliminated. This procedure was repeated three times and eliminated all of the compounds that were not bound to the enzyme. 4. Separation step—The enzyme-ligand complexes retained in the filter were re-suspended in a volume of 10 μL of ultra-pure water then mixed with a volume of 40 μL of acetonitrile in order to denature and precipitate the enzyme and at the same time to liberate the ligands. The mixture was centrifuged at 21000 g for 10 min in order to separate the precipitate from the supernatant. 5. Analysis step—Said supernatant was analyzed by liquid phase chromatography coupled to a mass spectrometer, also known by the acronym UPLC-MS. The reference sample was also analyzed in the same manner, using the same analytical conditions.
as §1

[3] = test system: fungal tyrosinase; assay: Target Binding affinity test for tyrosinase (UPLC-MS of bound ligands)
Source text: It is based on the principle of bringing the ligands and the target into contact in the liquid phase so that the ligands that have the greatest affinity with the target bind to it, elimination of the ligands that are not fixed, separation of the complexes in order to recover the ligands which have been fixed, then quantification of the latter. In a first step of the method, the extract and the target are mixed. The compounds of the extract compete for access to the binding sites of the target. The strongest compounds displace the weakest and are retained more effectively by the target. […] A reference sample was also prepared by diluting the sample to be analyzed 10-fold in a solution of water and a quarter of the volume of acetonitrile. […] Pre-conditioning step-Wells with a filtering membrane were pre-conditioned with a volume of 500 μL of an 85% solution of ammonium acetate and 15% of ethanol which was passed through the membrane by centrifuging at 14000 g for 60 seconds. 2. […] 3. Washing step-The mixture of the enzyme and the sample to be analyzed was deposited in a well that had been pre-conditioned in the pre-conditioning step, then centrifuged at 14000 g until most of the solvent had been eliminated. […] This procedure was repeated three times and eliminated all of the compounds that were not bound to the enzyme. 4. Separation step-The enzyme-ligand complexes retained in the filter were re-suspended in a volume of 10 μL of ultra-pure water, then mixed with a volume of 40 μL of acetonitrile in order to denature and precipitate the enzyme and, at the same time, to liberate the ligands. The mixture was centrifuged at 21000 g for 10 min in order to separate the precipitate from the supernatant. 5. Analysis step-Said supernatant was analyzed by liquid phase chromatography coupled to a mass spectrometer, also known by the acronym UPLC-MS. The reference sample was also analyzed in the same manner, using the same analytical conditions. The UPLC-MS analysis was carried out in accordance with the protocol described in Example 1. The chromatograms obtained are presented in FIGS. 3A and 3B and represent a signal intensity as a function of retention time in a column. […] Each peak is associated with one of the ligands present in the analyzed extract. The quantity associated with each ligand corresponds to the area of the peak. […] For each ligand, an affinity ratio, RACEi, was calculated as follows: [formula] where: NF is a normalization factor; […] the intensity of the analytical signal for the ligand CEi in the reference sample; ISeq,REF is the intensity of the analytical signal for the reference ligand REF (here, moracenin B) in the reference sample; […] the intensity of the analytical signal for the ligand CEi in the treated solution (the sample to be analyzed after steps 2 to 4 for binding and separation of the ligands) for the detached ligands; ISTB,REF is the intensity of the analytical signal for the reference ligand REF (here, moracenin B) in the treated solution (the sample to be analyzed after steps 2 to 4 for binding and separation of the ligands) for the detached ligands; RA, CEi is the relative affinity ratio (RA), representing an affinity of the ligand CEi for the target. The value of the ratio increases with affinity.

[4] = molecular target: T1, hyaluronidase originating from bull testicles (type IV-S) (Bos taurus, UniProt Q2YDK3); assay: Anti-hyaluronidase inhibiting activity, hyaluronic acid as substrate, precipitation with acidic BSA; assay type: biochemical
T1 construct: hyaluronidase originating from bull testicles (type IV-S); from tissue; host or cells: bull testicles
T1 sequence (Q2YDK3 36-553): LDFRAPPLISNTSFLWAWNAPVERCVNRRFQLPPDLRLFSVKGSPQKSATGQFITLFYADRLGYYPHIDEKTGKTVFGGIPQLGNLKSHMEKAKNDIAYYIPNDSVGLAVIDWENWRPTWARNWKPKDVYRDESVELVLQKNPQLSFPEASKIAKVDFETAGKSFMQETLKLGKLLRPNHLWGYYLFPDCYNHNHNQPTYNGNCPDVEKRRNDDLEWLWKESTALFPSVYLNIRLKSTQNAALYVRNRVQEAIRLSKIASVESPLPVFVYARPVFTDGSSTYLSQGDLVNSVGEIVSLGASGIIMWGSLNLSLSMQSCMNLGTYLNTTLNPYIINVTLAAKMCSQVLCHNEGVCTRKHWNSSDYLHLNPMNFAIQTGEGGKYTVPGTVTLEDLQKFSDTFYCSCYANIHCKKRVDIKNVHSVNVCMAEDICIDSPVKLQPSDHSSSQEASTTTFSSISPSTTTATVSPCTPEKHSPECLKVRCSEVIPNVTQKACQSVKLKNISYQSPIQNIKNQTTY
Protocol: A root extract of Morus Alba was prepared in accordance with the protocol described in Example 5. Hyaluronidase catalyzes the hydrolysis of hyaluronic acids into monosaccharides, disaccharides and short oligosaccharides. The measurement of the anti-hyaluronidase inhibiting activity was carried out using hyaluronic acid (HA) as a substrate in order to follow its reduction during the enzymatic reaction, the slope of the reduction of the concentration of HA during the reaction being proportional to the enzymatic activity.
The concentration of HA was measured in accordance with the following principle: in the presence of an acidic solution of bovine serum albumin, HA precipitates. Thus, in the case of the presence of HA, a precipitate is formed and in the case of complete hydrolysis of the HA, no precipitate is observed. Thus, the quantity of precipitation is proportion& to the HA content. […]
In order to follow the enzymatic degradation of the HA, a volume of 50 μl of RM was removed every 15 minutes, mixed with a volume of 250 μL of the solution of acidic BSA (acidic solution of bovine serum albumin: 24 mM sodium acetate, 79 mM acetic add and 0.1% (w/v) bovine serum albumin, pH 3.75) then incubated for 10 min at ambient temperature. The quantity of precipitate formed was then measured using a plate reader (diffusion of light at 600 nm). […]

CC(C)=CCc1c(O)ccc(C(=O)C2C(c3c(O)cc(-c4cc5ccc(O)c(CC=C(C)C)c5o4)cc3O)C=C(C)CC2c2ccc(O)cc2O)c1O (centres unmarked) [Mulberrofuran T, mulberrofuran T]
Relative affinity (RA) for collagenase [1]: 1.1 | Relative affinity (RA) for hyaluronidase [2]: 2.7 | Relative affinity (RA) for tyrosinase ([3]; ligands in non-stimulated M. alba root extract, moracenin B = reference ligand): 36.2 | affinity for tyrosinase compared with the other compounds of the extract (in words) ([3]; peak areas of FIG. 3B / relative affinities): greater affinity

O=c1c(O)c(-c2ccc(O)c(O)c2)oc2cc(O)cc(O)c12 [quercetin, reference compound]
inhibition at 10 µM [4]: 15.6%
